The structures appear in SMILES notation.

Sequence of b-Raf (V600E) (P15056 whole entry V600E): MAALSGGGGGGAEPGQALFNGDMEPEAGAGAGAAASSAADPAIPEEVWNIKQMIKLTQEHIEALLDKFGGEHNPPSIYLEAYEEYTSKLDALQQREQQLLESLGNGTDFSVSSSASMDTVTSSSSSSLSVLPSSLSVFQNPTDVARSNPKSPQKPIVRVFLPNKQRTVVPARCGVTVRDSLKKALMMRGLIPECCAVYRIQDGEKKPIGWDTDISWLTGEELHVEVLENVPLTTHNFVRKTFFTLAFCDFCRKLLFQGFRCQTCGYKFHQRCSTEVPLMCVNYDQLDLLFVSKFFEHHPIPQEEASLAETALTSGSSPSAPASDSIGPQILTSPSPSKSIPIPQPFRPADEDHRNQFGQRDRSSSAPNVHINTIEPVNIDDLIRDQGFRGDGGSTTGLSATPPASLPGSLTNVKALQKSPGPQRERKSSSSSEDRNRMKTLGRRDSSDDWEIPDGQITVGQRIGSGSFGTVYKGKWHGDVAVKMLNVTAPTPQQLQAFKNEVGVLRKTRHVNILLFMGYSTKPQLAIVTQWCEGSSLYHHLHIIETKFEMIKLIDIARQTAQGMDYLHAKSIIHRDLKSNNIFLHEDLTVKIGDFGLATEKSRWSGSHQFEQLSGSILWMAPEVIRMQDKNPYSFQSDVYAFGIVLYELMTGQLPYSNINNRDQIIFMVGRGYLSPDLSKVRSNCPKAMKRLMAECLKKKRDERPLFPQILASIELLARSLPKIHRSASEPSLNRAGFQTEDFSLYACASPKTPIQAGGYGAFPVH

One experiment addresses b-Raf (V600E) (Homo sapiens (Human), UniProt P15056, V600E). Conditions: read-out: b-Raf IC-50; AlphaScreen, 60 min pre-incubation, 3 hours reaction. Background: Alpha assays give light when donor and acceptor beads are brought close together.
Description: Sf9 cells co-expressing both proteins were lysed and subjected to immobilized nickel chromatography and eluted with Imidazole. A second column (StrepII binding column) was used and eluted with desthiobiotin. Protein Tags were removed using Prescission enzyme and the protein was further purified using a flowthrough step to remove tags.
Full length MEK1 with an inactivating K97R ATP binding site mutation is utilized as a RAF substrate. The MEK1 cDNA was subcloned with an N-terminal (his)6 tag into a vector for E. Coli expression. The MEK1 substrate was purified from E. Coli lysate by nickel affinity chromatography followed by anion exchange. The final MEK1 preparation was biotinylated (Pierce EZ-Link Sulfo-NHS-LC-Biotin) and concentrated.
Assay buffer: 50 mM Tris, pH 7.5, 15 mM MgCl2, 0.01% Bovine Serum Albumin (BSA), 1 mM dithiothreitol (DTT) Stop buffer: 60 mM ethylenediaminetetraacetic acid (EDTA), 0.01% Tween® 20
biotinylated Mek, kinase dead
384 well low volume assay plates (White Greiner® plates)
biotinylated Mek, Kinase dead approximately 10 nM
Pre-incubation time with compounds 60 minutes at room temperature
Reaction time 1 or 3 hours at room temperature
The plate was incubated for 60 minutes at room temperature.
The additions were carried out under dark conditions to protect the detection beads from light. A lid was placed on top of the plate and incubated for 1 hour at room temperature, then the luminescence was read on a PerkinElmer Envision instrument.
As for `Cc1ncc(NC(=O)c2ccnc(C(F)F)c2)cc1-c1cc(N2CCOCC2)n(C)c(=O)c1` [Example 508, 2-(difluoromethyl)-N-(1′,2-dimethyl-6′-morpholino-2′-oxo-1′,2′-dihydro-[3,4′-bipyridin]-5-yl)isonicotinamide], the IC50 is 7.8 nM.
Take `CCOc1nnc(-c2cc(NC(=O)c3ccnc(C(C)(C)F)c3)ccc2C)cc1N1CCOCC1` [Example 564, N-(3-(6-ethoxy-5-morpholinopyridazin-3-yl)-4-methylphenyl)-2-(2-fluoropropan-2-yl)isonicotinamide]: the IC50 was found to be 1.3 nM.
For the molecule `Cc1ccc(NC(=O)c2ccnc(C(C)(C)C#N)c2)cc1-c1cncc(N2CCOCC2)n1` [Example 531, 2-(2-cyanopropan-2-yl)-N-(4-methyl-3-(6-morpholinopyrazin-2-yl)phenyl)isonicotinamide], the IC50 worked out at 5 nM.
The same measure, in the same setting: the figure for `Cc1ccc(NC(=O)c2ccnc(C(C)(C)F)c2)cc1-c1cc(N2CCOCC2)c(OCCO)nn1` [Example 588, 2-(2-fluoropropan-2-yl)-N-(3-(6-(2-hydroxyethoxy)-5-morpholinopyridazin-3-yl)-4-methylphenyl)isonicotinamide] is 2.2 nM; for `Cc1ccc(NC(=O)c2cccc(C(F)(F)F)c2)cc1-c1nc(N2CCOCC2)c2ncsc2n1` [Example 839, N-(4-methyl-3-(7-morpholinothiazolo[5,4-d]pyrimidin-5-yl)phenyl)-3-(trifluoromethyl)benzamide] it is 0.9 nM; for `Cc1ccc(NC(=O)c2ccnc(C(C)(C)O)c2)cc1-c1cc(N2CCOCC2)c(=O)n(C)n1` [Example 638, 2-(2-hydroxypropan-2-yl)-N-(4-methyl-3-(1-methyl-5-morpholino-6-oxo-1,6-dihydropyridazin-3-yl)phenyl)isonicotinamide] it is 9.6 nM.
On the same count and under the same terms, in the case of `CCn1c(N2CCOCC2)cc(-c2cc(NC(=O)c3ccnc(C(F)(F)CC)c3)ccc2C)cc1=O` [Example 520, 2-(1,1-difluoropropyl)-N-(3-(1-ethyl-6-morpholino-2-oxo-1,2-dihydropyridin-4-yl)-4-methylphenyl)isonicotinamide] it was 2.1 nM; in that of `Cc1ccc(NC(=O)c2ccnc(C(C)(C)F)c2)cc1-c1cc(N2CCOC[C@H]2C)c(=O)n(C)n1` [Example 673, (R)-2-(2-fluoropropan-2-yl)-N-(4-methyl-3-(1-methyl-5-(3-methylmorpholino)-6-oxo-1,6-dihydropyridazin-3-yl)phenyl)isonicotinamide], 6.3 nM.
In the case of `CCOc1nnc(-c2cc(NC(=O)c3ccnc(C(C)(F)F)c3)cnc2C)cc1N1CCOCC1` [Example 620, 2-(1,1-difluoroethyl)-N-(5-(6-ethoxy-5-morpholinopyridazin-3-yl)-6-methylpyridin-3-yl)isonicotinamide], the IC50 is 1.9 nM.
Still for that read-out and setting: the figure for `COc1nnc(-c2cc(NC(=O)c3ccnc(C(C)(C)O)c3)ccc2C)cc1N1CCOCC1` [Example 556, 2-(2-hydroxypropan-2-yl)-N-(3-(6-methoxy-5-morpholinopyridazin-3-yl)-4-methylphenyl)isonicotinamide] is 3.9 nM.

The experiment is the same for the next values; noted with them: read-out: b-Raf IC-50; AlphaScreen, 60 min pre-incubation, reaction 3 hours at room temperature.
Regarding `Cc1ncc(NC(=O)c2ccnc(C(C)(C)F)c2)cc1-c1cnc(OC[C@H](C)O)c(N2CCOCC2)c1` [Example 990, (S)-2-(2-fluoropropan-2-yl)-N-(6′-(2-hydroxypropoxy)-2-methyl-5-morpholino-[3,3′-bipyridin]-5-yl)isonicotinamide], the IC50 turned out to be 5.41 nM.
`Cc1ccc(NC(=O)c2cnnc(C(F)(F)F)c2)cc1-c1c(F)c(NCCO)nc(N2CCOCC2)c1F` [Example 1015, N-(3-(3,5-difluoro-2-((2-hydroxyethyl)amino)-6-morpholinopyridin-4-yl)-4-methylphenyl)-6-(trifluoromethyl)pyridazine-4-carboxamide]: the IC50 is 29.5 nM.
On the same count and under the same terms, in the case of `Cc1ncc(NC(=O)c2cccc(C(F)(F)F)c2)cc1-c1cc(N2CCOCC2)nc(N2CCC(O)C2)c1` (stereo not drawn) [Example 1131, N-(2′-(3-hydroxypyrrolidin-1-yl)-2-methyl-6′-morpholino-[3,4′-bipyridin]-5-yl)-3-(trifluoromethyl)benzamide] it was 2.34 nM; in that of `Cc1ncc(NC(=O)c2ccnc(C(C)(F)F)c2)cc1-c1cc(NCCO)nc(N2CCOC[C@H]2C)c1` [Example 1139, (R)-2-(1,1-difluoroethyl)-N-(2′-((2-hydroxyethyl)amino)-2-methyl-6′-(3-methylmorpholino)-[3,4′-bipyridin]-5-yl)isonicotinamide], 14.3 nM.
Consider `CC(F)(F)c1cc(C(=O)Nc2c[nH]c(=O)c(-c3ccnc(N4CCOCC4)c3)c2)ccn1` [Example 1171, 2-(1,1-difluoroethyl)-N-(2′-morpholino-2-oxo-1,2-dihydro-[3,4′-bipyridin]-5-yl)isonicotinamide], for which the IC50 was 25000 nM.
The same measure, in the same setting: the figure for `Cc1ccc(NC(=O)c2ccnc(C(C)(C)O)c2)cc1-c1cnc(OC(C)C)c(N2CCOCC2)c1` [Example 947, 2-(2-hydroxypropan-2-yl)-N-(3-(6-isopropoxy-5-morpholinopyridin-3-yl)-4-methylphenyl)isonicotinamide] is 1.76 nM.

The experiment is the same for the next values; noted with them: read-out: b-Raf IC-50; Table 2; AlphaScreen, 3 hours reaction.
Consider `CCOc1ncc(-c2cc(NC(=O)c3ccnc(C(C)(C)O)c3)cnc2C)cc1N1CCOCC1` [Example 240, N-(6′-ethoxy-2-methyl-5′-morpholino-[3,3′-bipyridin]-5-yl)-2-(2-hydroxypropan-2-yl)isonicotinamide], for which the IC50 turned out to be 15.3 nM.
As for `Cn1cc(-c2cc(NC(=O)c3ccnc(C(F)(F)F)c3)ccc2C#N)cc(N2CCOCC2)c1=O` [Example 415, N-(4-cyano-3-(1-methyl-5-morpholino-6-oxo-1,6-dihydropyridin-3-yl)phenyl)-2-(trifluoromethyl)isonicotinamide], the IC50 came out at 10100 nM.
Regarding `Cc1ncc(NC(=O)c2cccc(C(F)(F)F)c2)cc1-c1cnc(O[C@H]2CCOC2)c(N2CCOCC2)c1` [Example 310, (S)—N-(2-methyl-5′-morpholino-6′-((tetrahydrofuran-3-yl)oxy)-[3,3′-bipyridin]-5-yl)-3-(trifluoromethyl)benzamide], the IC50 stood at 1.8 nM.
Same read-out and setting: the figure for `CCOc1ncc(-c2cc(NC(=O)c3ccnc(C4CC4)c3)cnc2C)cc1N1CCOCC1` [Example 254, 2-cyclopropyl-N-(6′-ethoxy-2-methyl-5′-morpholino-[3,3′-bipyridin]-5-yl)isonicotinamide] is 1.8 nM.
The same measure, in the same setting: the figure for `Cn1cc(-c2cc(C(=O)Nc3cccc(C(F)(F)F)c3)cnc2Cl)cc(N2CCOCC2)c1=O` [Example 423, 2-chloro-1′-methyl-5′-morpholino-6′-oxo-N-(3-(trifluoromethyl)phenyl)-1′,6′-dihydro-[3,3′-bipyridine]-5-carboxamide] is 6 nM; for `Cc1ncc(NC(=O)c2ccnc(C(C)(F)F)c2)cc1-c1cnc(N(C)C)c(N2CCOCC2)c1` [Example 267] it is 1.1 nM; for `CCn1cc(-c2cc(NC(=O)c3ccnc(C(C)(C)C#N)c3)cnc2C)cc(N2CCOCC2)c1=O` [Example 332, 2-(2-cyanopropan-2-yl)-N-(1′-ethyl-2-methyl-5′-morpholino-6′-oxo-1′,6′-dihydro-[3,3′-bipyridin]-5-yl)isonicotinamide] it is 23.2 nM.
On the same count and under the same terms, the figure for `Cn1cc(-c2cc(NC(=O)c3cccc(C(F)(F)F)c3)ccc2C#N)cc(N2CCOCC2)c1=O` [Example 411, N-(4-cyano-3-(1-methyl-5-morpholino-6-oxo-1,6-dihydropyridin-3-yl)phenyl)-3-(trifluoromethyl)benzamide] is 3100 nM.

For the origin of these results see patent US9694016B2 (Novartis AG, priority 2013, dated 2017).
